Experimental data published in the supplement of paper PMC10307832.

Experiments:
Assay in all cases: relative viability (nuclei count vs DMSO), 5 days (fraction); higher = more cells survive
[1] = test system: NCI-H661
Summary of the method: (§1)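 Medians of duplicate plates are given as relative viability. That measure is the nuclei count in treated wells divided by the count in vehicle wells. Counts were taken on 4× images of lung cancer cell lines in 1536-well plates, 5 days after pin-tool dosing the day after seeding with one drug alone or a fixed anchor-drug dose plus five library-drug doses (not always all listed) in √10 steps.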

[2] = test system: NCI-H2009
Summary of the method: as §1

[3] = test system: CAL-12T
Summary of the method: as §1

[4] = test system: NCI-H3122
Summary of the method: as §1

[5] = test system: NCI-H1437
Summary of the method: as §1

[6] = test system: NCI-H1666
Summary of the method: as §1

[7] = test system: LK-2
Summary of the method: as §1

[8] = test system: NCI-H727
Summary of the method: as §1

[9] = test system: ABC-1
Summary of the method: as §1

[10] = test system: EKVX
Summary of the method: as §1

[11] = test system: NCI-H2170
Summary of the method: as §1

[12] = test system: HARA
Summary of the method: as §1

[13] = test system: 201T
Summary of the method: as §1

[14] = test system: SW 900
Summary of the method: as §1

[15] = test system: PC-14
Summary of the method: as §1

[16] = test system: COR-L 105
Summary of the method: as §1

[17] = test system: BEN
Summary of the method: as §1

[18] = test system: NCI-H441
Summary of the method: as §1

[19] = test system: NCI-H2023
Summary of the method: as §1

[20] = test system: LU99A
Summary of the method: as §1

[21] = test system: NCI-H838
Summary of the method: as §1

[22] = test system: NCI-H1650
Summary of the method: as §1

[23] = test system: COR-L23
Summary of the method: as §1

`COc1cc(N2CCC(C(N)=O)CC2)ccc1Nc1nc(N)c(Cl)c(Nc2ccccc2S(=O)(=O)C(C)C)n1` [HG-5-88-01] + CCNC(=O)c1noc(-c2cc(C(C)C)c(O)cc2O)c1-c1ccc(CN2CCOCC2)cc1 [Luminespib] (partner 0.01 µM) was tested, and the relative viability ([1]; first compound 0.04 µM) was 0.938, the relative viability ([1]; first compound 0.1265 µM) was 0.964 and the relative viability ([1]; first compound 0.4 µM) was 1.04. The relative viability ([1]; first compound 1.265 µM) was 1.03, the relative viability ([1]; first compound 4 µM) was 0.951 and the relative viability ([2]; first compound 0.04 µM) was 1.11. The relative viability ([2]; first compound 0.1265 µM) was 1.06, the relative viability ([2]; first compound 0.4 µM) was 0.954 and the relative viability ([2]; first compound 1.265 µM) was 0.994. It also gave a relative viability ([2]; first compound 4 µM) of 1.12, a relative viability ([3]; first compound 0.04 µM) of 0.583 and a relative viability ([3]; first compound 0.1265 µM) of 1.02. For the same compound, the relative viability ([3]; first compound 0.4 µM) was 0.36, the relative viability ([3]; first compound 1.265 µM) was 0.392 and the relative viability ([3]; first compound 4 µM) was 0.255. For the same compound, the relative viability ([4]; first compound 0.04 µM) was 0.0748, the relative viability ([4]; first compound 0.1265 µM) was 0.11 and the relative viability ([4]; first compound 0.4 µM) was 0.106. It also gave a relative viability ([4]; first compound 1.265 µM) of 0.115, a relative viability ([4]; first compound 4 µM) of 0.0981 and a relative viability ([5]; first compound 0.04 µM) of 1.09. The relative viability ([5]; first compound 0.1265 µM) was 1.1, the relative viability ([5]; first compound 0.4 µM) was 1.07 and the relative viability ([5]; first compound 1.265 µM) was 0.998. For the same compound, the relative viability ([5]; first compound 4 µM) was 1.23, the relative viability ([6]; first compound 0.04 µM) was 1.05 and the relative viability ([6]; first compound 0.1265 µM) was 0.991. It also gave a relative viability ([6]; first compound 0.4 µM) of 0.948, a relative viability ([6]; first compound 1.265 µM) of 0.925 and a relative viability ([6]; first compound 4 µM) of 0.777. The relative viability ([7]; first compound 0.04 µM) was 0.192, the relative viability ([7]; first compound 0.1265 µM) was 0.241 and the relative viability ([7]; first compound 0.4 µM) was 0.205. The relative viability ([7]; first compound 1.265 µM) was 0.183, the relative viability ([7]; first compound 4 µM) was 0.193 and the relative viability ([8]; first compound 0.04 µM) was 0.566. It also gave a relative viability ([8]; first compound 0.1265 µM) of 0.344, a relative viability ([8]; first compound 0.4 µM) of 0.337 and a relative viability ([8]; first compound 1.265 µM) of 0.313. The relative viability ([8]; first compound 4 µM) was 0.31, the relative viability ([9]; first compound 0.04 µM) was 0.406 and the relative viability ([9]; first compound 0.1265 µM) was 0.86. For the same compound, the relative viability ([9]; first compound 0.4 µM) was 0.345, the relative viability ([9]; first compound 1.265 µM) was 0.296 and the relative viability ([9]; first compound 4 µM) was 0.587. For the same compound, the relative viability ([10]; first compound 0.04 µM) was 0.892, the relative viability ([10]; first compound 0.1265 µM) was 0.838 and the relative viability ([10]; first compound 0.4 µM) was 0.752. It also gave a relative viability ([10]; first compound 4 µM) of 0.838, a relative viability ([11]; first compound 0.04 µM) of 0.749 and a relative viability ([11]; first compound 0.1265 µM) of 0.746. The relative viability ([11]; first compound 0.4 µM) was 0.666, the relative viability ([11]; first compound 1.265 µM) was 0.511 and the relative viability ([11]; first compound 4 µM) was 0.784. It also gave a relative viability ([12]; first compound 0.04 µM) of 0.777, a relative viability ([12]; first compound 0.1265 µM) of 0.813 and a relative viability ([12]; first compound 0.4 µM) of 0.565. It also gave a relative viability ([12]; first compound 1.265 µM) of 0.5, a relative viability ([12]; first compound 4 µM) of 0.421 and a relative viability ([13]; first compound 0.04 µM) of 1.01. It also gave a relative viability ([13]; first compound 0.1265 µM) of 1.04, a relative viability ([13]; first compound 0.4 µM) of 1.08 and a relative viability ([13]; first compound 1.265 µM) of 1.03. The relative viability ([13]; first compound 4 µM) was 1.11, the relative viability ([14]; first compound 0.04 µM) was 0.158 and the relative viability ([14]; first compound 0.1265 µM) was 0.207. For the same compound, the relative viability ([14]; first compound 0.4 µM) was 0.185, the relative viability ([14]; first compound 1.265 µM) was 0.157 and the relative viability ([14]; first compound 4 µM) was 0.186. For the same compound, the relative viability ([15]; first compound 0.04 µM) was 0.173, the relative viability ([15]; first compound 0.1265 µM) was 0.209 and the relative viability ([15]; first compound 0.4 µM) was 0.181. The relative viability ([15]; first compound 1.265 µM) was 0.131, the relative viability ([15]; first compound 4 µM) was 0.194 and the relative viability ([16]; first compound 0.04 µM) was 0.664. It also gave a relative viability ([16]; first compound 0.1265 µM) of 1.02, a relative viability ([16]; first compound 0.4 µM) of 0.851 and a relative viability ([16]; first compound 1.265 µM) of 0.903. For the same compound, the relative viability ([16]; first compound 4 µM) was 0.702, the relative viability ([17]; first compound 0.04 µM) was 0.337 and the relative viability ([17]; first compound 0.1265 µM) was 0.412. It also gave a relative viability ([17]; first compound 0.4 µM) of 0.43, a relative viability ([17]; first compound 1.265 µM) of 0.465 and a relative viability ([17]; first compound 4 µM) of 0.234. It also gave a relative viability ([18]; first compound 0.04 µM) of 0.284, a relative viability ([18]; first compound 0.1265 µM) of 0.292 and a relative viability ([18]; first compound 0.4 µM) of 0.476. The relative viability ([18]; first compound 1.265 µM) was 0.248, the relative viability ([18]; first compound 4 µM) was 0.297 and the relative viability ([19]; first compound 0.04 µM) was 0.397. It also gave a relative viability ([19]; first compound 0.1265 µM) of 0.673, a relative viability ([19]; first compound 0.4 µM) of 0.671 and a relative viability ([19]; first compound 1.265 µM) of 0.438. For the same compound, the relative viability ([19]; first compound 4 µM) was 0.267, the relative viability ([20]; first compound 0.04 µM) was 0.214 and the relative viability ([20]; first compound 0.1265 µM) was 0.217. It also gave a relative viability ([20]; first compound 0.4 µM) of 0.288, a relative viability ([20]; first compound 1.265 µM) of 0.275 and a relative viability ([20]; first compound 4 µM) of 0.252. It also gave a relative viability ([21]; first compound 0.04 µM) of 0.322, a relative viability ([21]; first compound 0.1265 µM) of 0.288 and a relative viability ([21]; first compound 0.4 µM) of 0.212. For the same compound, the relative viability ([21]; first compound 1.265 µM) was 0.276, the relative viability ([21]; first compound 4 µM) was 0.205 and the relative viability ([22]; first compound 0.04 µM) was 0.156. It also gave a relative viability ([22]; first compound 0.1265 µM) of 0.184, a relative viability ([22]; first compound 0.4 µM) of 0.172 and a relative viability ([22]; first compound 1.265 µM) of 0.197. For the same compound, the relative viability ([22]; first compound 4 µM) was 0.204, the relative viability ([23]; first compound 0.04 µM) was 0.69 and the relative viability ([23]; first compound 0.1265 µM) was 0.575. For the same compound, the relative viability ([23]; first compound 0.4 µM) was 0.589, the relative viability ([23]; first compound 1.265 µM) was 0.614 and the relative viability ([23]; first compound 4 µM) was 0.557.
